Measurements reported in patent US11447535B2, “GLP-1 analogues” (Sun Pharmaceutical Industries Limited, priority 2018, dated 2022).
Marks after values point to notes of the source that are not given here.

How the values were obtained:
[1] = tested on: db/db mice (diabetic mouse model); assay: Separate db/db diabetic mouse study, q2d*15 up to day 28, recovery period day 29 to day 45; type: in vivo
Description: The study was performed in similar manner as above on diabetic mouse model. The animals were divided into three treatment groups—a diabetic control group, a test group and a semaglutide treatment group. The representative compounds of the present disclosure, Compound 1, Compound 13 and Compound 16, were injected subcutaneously at 3.04 or 6.078 nM dose (every alternate day up to day 28 (q2d*15). The same dosage regimen was administered in semaglutide treatment group. Measurements of blood glucose levels and body weight were done daily. % HbA1c, Insulin was measured on Day 0, day 14 and day 29. Cumulative food intake and body weight change was calculated on day 14 and 29. % HbA1c, Insulin data was analyzed by two way ANOVA followed by Bonferroni's posttests using PRISM (Graph Pad version 5.03). Whereas Blood Glucose AUC, Body weight change and Cumulative food intake data was analyzed by one way ANOVA followed by Bonferroni's posttests using PRISM (Graph Pad version 5.03). From day 29 to day 45, animals were kept on recovery period during which no drug treatment was given. Blood Glucose and Body weight was measured during this period. On day 45, Body weight Changes, % HbA1c, Insulin was measured.

SD rats = assay: Oral glucose tolerance test (OGTT) in rats; single injection; 1 mg/kg; type: in vivo; parameters: Change in AUC (mg/dL*min): unit not given here; settings: for Blood Glucose AUC (mg/dL*min) Mean / Change in AUC (mg/dL*min): 1 mg/Kg; for Blood Glucose AUC (mg/dL*min) Mean: Exp. 1; for Change in AUC (mg/dL*min): Exp. 1, vs control group
Description: (§1) Animals were divided into three groups—a normal control group, a test group and a third semaglutide group, with 4 animals in each group. The animals were fasted for 12 hours before initiation of OGTT. To the test group animals, the Compound 1 was injected subcutaneously at 1 mg/kg dose. To the semaglutide group, a dose of 1 mg/kg was injected subcutaneously. After 22 hrs, 166 hrs and 334 hrs of subcutaneous injection of test drug or semaglutide, blood glucose was measured with blood glucose meter (time 0 measurements). All the animals were then given 2 g/kg of glucose solution orally. Blood glucose was measured at 20, 40, 60, 90 and 120 minutes following glucose challenge. Body weight and food intake was recorded. Blood glucose data was analyzed using Two way ANOVA followed by Bonferroni posttests using PRISM (Graph Pad version 5.03). Data of Blood glucose AUC0-120 min, was analyzed using t test.
as §1, with “animals,” for “animals, the”, “1, Compound 13 and Compound 16 were” for “1 was”, “compound” for “drug”

[2] = tested on: db/db type 2 diabetic mice; assay: Reduction of HbA1c in db/db type 2 diabetic mice after chronic treatment (27 day study); type: in vivo
Description: This study was done in diabetic mouse model. The animals were divided into three treatment groups—a diabetic control group, a test group and a semaglutide treatment group. Compound 1 of the present disclosure was injected subcutaneously at 0.3 mg/kg dose once a day for 3 days (qd*3) followed by 0.1 mg/kg dose every alternate day for 7 doses (q2d*7) followed by 0.1 mg/kg dose once every four days for two dose cycles (q4d*2). The same dosage regimen was administered in semaglutide treatment group. Measurements of blood glucose levels and body weight were done daily. % HbA1c was measured on Day 0, day 7, day 14 and day 27 by column chromatography. Cumulative food intake was calculated on day 27. % HbA1C data was analyzed by two way ANOVA followed by Bonferroni's posttests using PRISM (Graph Pad version 5.03).

[3] = Food intake and body weight recorded in the rat OGTT study; type: in vivo, rats; settings: for Body Weight Change (%) Mean / Food Consumption (g) Mean: Exp. 1
Description: as §1
as §1, with “animals,” for “animals, the”, “1, Compound 13 and Compound 16 were” for “1 was”, “compound” for “drug”

[4] = recovery period, earlier dose 6.078 nM
[5] = recovery study, day 45, earlier dose 6.078 nM (6.0788 nM given for Compound 13)
[6] = rats, 1 mg/kg s.c. single injection, Day 2
[7] = rats, 1 mg/kg s.c. single injection, Day 4

Substance: N-ε^26-[2-(2-[2-(2-[2-(2-[4-(17-Carboxyheptadecanoylamino)-4(S)carboxybutyrylamino]ethoxy) ethoxy]acetylamino)ethoxy]ethoxy)acetyl][(Aib^8, Arg^34, Leu^38 GLP-1(7-38) peptide (HXXXGTFTSDVSSYLXGQAAXEFXAWLVRGRGXX; C18 diacid-gGlu-OEG-OEG on Lys26; Aib8; (2)..(2) Xaa = Aib; (3)..(3) Xaa = absent.; (4)..(4) Xaa = Glu.; (16)..(16) Xaa = Glu.; (21)..(21) Lys is substituted; (24)..(24) Xaa is Ile.; (33)..(33) Xaa is Leu.; (34)..(34) Xaa is absent.) [Compound 1]
- Blood Glucose AUC (Day 0-29) % Change Vs Control ([1]; 6.078 nM, q2d*15): −45.75%
- Blood Glucose AUC (Day 0-29) (mg/dL*days) Mean ([1]; 6.078 nM, q2d*15): 9194.6*** mg/dL*days
- Body Weight Change Day 29, % Change vs Day 0 Mean ([1]; 6.078 nM, q2d*15): −0.3%
- Cumulative Food Intake (g) Day 0-29 Mean ([1]; 6.078 nM, q2d*15): 79.8 g
- % HbA1C Mean ([1]; Day 0, 6.078 nM, q2d*15): 7.8%
- Insulin (ng/mL) Mean ([1]; Day 0, 6.078 nM, q2d*15): 18.0 ng/mL
- % HbA1C Mean ([1]; Day 14, 6.078 nM, q2d*15): 6.4 ** %
- Insulin (ng/mL) Mean ([1]; Day 14, 6.078 nM, q2d*15): 58.1** ng/mL
- % HbA1C Mean ([1]; Day 29, 6.078 nM, q2d*15): 6.2 *** %
- Insulin (ng/mL) Mean ([1]; Day 29, 6.078 nM, q2d*15): 54.7** ng/mL
- HbA1c, blood glucose, food consumption and body weight vs control ([1]; about 3 nM and 6 nM dose): significant reduction
- Blood Glucose AUC (Day 30-37) % Change vs Control [1, 4]: −22.39%
- Blood Glucose AUC (Day 30-37) (mg/dL*days) Mean [1, 4]: 2787.3* mg/dL*days
- Blood Glucose AUC (Day 38-45) % Change vs Control [1, 4]: −7.39%
- Blood Glucose AUC (Day 38-45) (mg/dL*days) Mean [1, 4]: 3335.7 mg·days/dL
- % HbA1C Mean [1, 5]: 7.6%
- Delta HbA1C vs. DC [1, 5]: −0.9
- Insulin (ng/mL) Mean [1, 5]: 30.9 ng/mL
- Body Weight % Change vs Day 45 Mean ([1]; recovery study, earlier dose 6.078 nM (6.0788 nM given for Compound 13)): 5.9%
- Blood Glucose AUC (mg/dL*min) Mean (SD rats; OGTT, 22 hr): 3173.0 mg·min/dL
- Change in AUC (mg/dL*min) (SD rats; OGTT, 22 hr): −78.7
- Blood Glucose AUC (mg/dL*min) Mean (SD rats; OGTT, 168 hr): 5941.0 mg·min/dL
- Change in AUC (mg/dL*min) (SD rats; OGTT, 168 hr): −65.4
- Blood Glucose AUC (mg/dL*min) Mean (SD rats; OGTT, 336 hr): 11920.0 mg·min/dL
- Change in AUC (mg/dL*min) (SD rats; OGTT, 336 hr): −28.3
- blood glucose level vs normal control (SD rats; OGTT, 22 hours after single dosing, 1 mg/kg s.c. (FIG. 6A)): statistically significant reduction in blood glucose level
- glucose lowering effect vs semaglutide (SD rats; OGTT, after 22 hrs, 1 mg/kg s.c. (FIG. 6A)): superior to the glucose lowering effect observed with semaglutide
- glucose lowering effect vs semaglutide (SD rats; OGTT, after 46 hours of subcutaneous administration (FIG. 6B)): superiority of glucose lowering effect
- reduction in blood glucose AUC (SD rats; after 168 hrs of injection, 1 mg/kg): about 60%
- cumulative food intake vs diabetic control group ([2]; db/db mice, 0 to 27th day (FIG. 8)): significant reduction in food intake
- % HbA1c Mean ([2]; db/db mice, Day 0 (before treatment)): 4.87%
- % HbA1c % Change vs DC ([2]; db/db mice, Day 27, vs Diabetic Control): −3.57%
- % HbA1c Mean ([2]; db/db mice, Day 27, s.c. 0.3 mg/kg qd*3, 0.1 mg/kg q2d*7, 0.1 mg/kg q4d*2): 3.73***^## %
- blood glucose levels vs diabetic control group ([2]; db/db mice, chronic treatment (FIG. 7)): statistically significant reduction in blood glucose levels
- % change in body weight ([2]; db/db mice, day 0 to day 27 (FIG. 9)): −16%
- blood glucose effect vs semaglutide treatment group ([2]; db/db mice, latter phase of the study (FIG. 7)): superior to semaglutide treatment group in latter phase of the study
- HbA1c level after chronic treatment ([2]; db/db type 2 diabetic mice, 27 day study): statistically significant reduction in HbA1c level
- Body Weight Change (%) Mean ([3]; 1 mg/Kg, 48 h): −9.8%
- Food Consumption (g) Mean ([3]; 1 mg/Kg, 48 h): 8.3 g
- Body Weight Change (%) Mean ([3]; 1 mg/Kg, 154 h): 5.2%
- Food Consumption (g) Mean ([3]; 1 mg/Kg, 154 h): 69.6 g
- Body Weight Change (%) Mean ([3]; 1 mg/Kg, 324 h): 9.3%
- Food Consumption (g) Mean ([3]; 1 mg/Kg, 324 h): 99.4 g
- food consumed vs animals administered with semaglutide ([3]; 1 mg/Kg, text on Table 8): consumed significantly less food
- Body Weight (Day 2) % Change vs Baseline [3, 6]: −9.33%
- Body Weight (g) (Day 2) Mean [3, 6]: 365.6 g
- Body Weight (Day 4) % Change vs Baseline [3, 7]: −7.5%
- Body Weight (g) (Day 4) Mean [3, 7]: 436.2* g
- Food Consumption (g) (day 0 to day 2) Mean ([3]; rats, 1 mg/kg s.c. single injection, day 0 to day 2): 2.63*** g
- Food Consumption (g) (day 0 to day 4) Mean ([3]; rats, 1 mg/kg s.c. single injection, day 0 to day 4): 43.25***^,## g
